These results are taken from a compilation of properties of binary mixtures (doi:10.1016/j.molliq.2021.116805).

The data set can be described thus: xn = mol fraction of the nth substance listed. The settings on record: 101 kPa.

Turning to `CCCCCCCCCCCCCCCCCC[n+]1ccn(C)c1.O=S(=O)([N-]S(=O)(=O)C(F)(F)F)C(F)(F)F` + CCCCCCCCCCCCCCCCn1cc[n+](C)c1.O=S(=O)([N-]S(=O)(=O)C(F)(F)F)C(F)(F)F, the viscosity is, setting by setting: (333 K, x2 = 0.621) 59.3 mPa·s; (343 K, x2 = 0.621) 41.1 mPa·s; (353 K, x2 = 0.621) 29.6 mPa·s.
For `CCCCCCCCCCCCCC[n+]1ccn(C)c1.O=S(=O)([N-]S(=O)(=O)C(F)(F)F)C(F)(F)F` + CCCCCCCCCCCCCCCCn1cc[n+](C)c1.O=S(=O)([N-]S(=O)(=O)C(F)(F)F)C(F)(F)F, the viscosity reads like this: (313 K, x1 = 0.6709) 102.6 mPa·s; (323 K, x1 = 0.6709) 66.3 mPa·s; (333 K, x1 = 0.6709) 45.2 mPa·s; (343 K, x1 = 0.6709) 32 mPa·s; (353 K, x1 = 0.6709) 23.4 mPa·s.
With `CCCCCCCCCCCCCCCCCC[n+]1ccn(C)c1.O=S(=O)([N-]S(=O)(=O)C(F)(F)F)C(F)(F)F` + CCCCCCCCCCCCCC[n+]1ccn(C)c1.O=S(=O)([N-]S(=O)(=O)C(F)(F)F)C(F)(F)F, the viscosity is, setting by setting: (333 K, x2 = 0.7675) 49.6 mPa·s; (343 K, x2 = 0.7675) 34.8 mPa·s; (353 K, x2 = 0.7675) 25.4 mPa·s.

For orientation: viscosity means the internal friction of a fluid under shear. Higher therefore signals sluggish flow.
